# Results: patent US5312919A, “Photooxidation products and derivatives thereof of merocyanine-540, their preparation and uses” (priority 1992, dated 1994)
# Like-named read-outs stand apart in the source and are kept apart here.
# How the values were obtained:
# [1] = system: BT-20 (breast, adenocarcinoma); experiment: Inhibition of cell proliferation, BT-20 (MTT assay); format: cell-based; settings: Homo sapiens, read-out: % inhibition of cell proliferation
# Source text: Preactivated MC 540 is abbreviated as pMC 540. […] 52: 831-38 (1990); and T. Mosmann, J. Immulog. Methods 65: 55-63 (1983). […]
# [2] = system: MT-4 cells; experiment: Effect on viability of MT-4 cells; format: cell-based; settings: experimental conditions of Table 8
# Method: (§1) Cell free human immunodeficiency virus (HIV-1) was either left untreated or treated with indicated doses of Merocil or Merodantoin for one hour at 37° C. and added to MT-4 target cells. After 4 hour incubation at 37° C., the cells were washed three times and further incubated in drug free fresh growth medium (complete RPMI-1640) at 37° C. for 4 days. On day four, 50% of the culture supernatant was replaced with fresh growth medium to prevent cell death due to possible nutrient depletion. The viability of the cell was determined on day 11 by MTT assay. […] The viability of the MT-4 cells was not affected by Merocil or Merodantoin under the experimental conditions described above.
# [3] = system: DU 145 (prostate, carcinoma, human); experiment: Inhibition of cell proliferation, DU 145 (MTT assay); format: cell-based; settings: read-out: % inhibition of cell proliferation
# Method: (§2) Preactivated MC 540 is abbreviated as pMC 540. […] 52: 831-38 (1990); and T. Mosmann, J. Immulog. Methods 65: 55-63 (1983).
# (§3) Each cell type (1×10^6 cells/ml; in triplicate) was treated with indicated concentrations of merocil or merodantoin. After overnight (20 hr.) or 5 day incubation periods, the cell viability was determined by MTT assay and calculated as a percentage of untreated controls. The toxicity in vehicle only (cremophor EL) controls was not detectable at highest dose tested.
# [4] = system: human immunodeficiency virus (HIV-1); experiment: Inactivation of cell free human immunodeficiency virus (viability of MT-4 target cells, MTT assay); format: cell-based
# Method: as §2, §1
# [5] = system: C-33A (carcinoma cervix, human); experiment: Inhibition of cell proliferation, C-33A (MTT assay); format: cell-based; settings: read-out: % inhibition of cell proliferation
# Method: as §2, §3
# [6] = system: L1210 mouse leukemia cells; experiment: Combined effect on L1210 mouse leukemia cells (MTT assay); settings: MC = 12.5 μg/ml; MD = 25 μg/ml; MZ = 25 μg/ml; overnight
# Method: The biological activities of the photooxidation products of MC 540 were determined. Preactivated MC 540 is abbreviated as pMC 540. Assays of antitumor activities of the products were carried out according to published standard methods.
# Mouse leukemia L1210 cells (1 × 10^6 cells/ml) were treated wit
# different combinations of the indicated compounds (isolated from
# preactivated merocyanine 540). After overnight incubation the cell kill
# [7] = system: MS 751 (cervix, carcinoma, human); experiment: Inhibition of cell proliferation, MS 751 (MTT assay); format: cell-based; settings: read-out: % inhibition of cell proliferation
# Method: as §2, §3
# [8] = system: normal human peripheral blood mononuclear cells; experiment: Cytotoxicity on normal human peripheral blood mononuclear cells (trypan blue dye exclusion); format: cell-based; settings: doses of Table 1
# Method: (§4) Preactivated MC 540 is abbreviated as pMC 540.
# (§5) Merocil and Merodantoin were dissolved in cremophor EL whereas pMC 540 was prepared in 10% aqueous ethanol. […] Fresh human peripheral mononucleas cells (1×10^6 cells/ml) were treated with indicated concentration of compounds. After overnight incubation at 37° C., cell viability was determined by trypan blue dye exclusion method.
# [9] = as above; format: cell-based; settings: human, peripheral blood mononuclear cells, overnight, 37° C., read-out: % cell kill (mean ± S.E.M.)
# Method: as §4, §5
# [10] = system: human Burkitt lymphoma Daudi cells; experiment: Cytotoxic effects on human Burkitt lymphoma Daudi cells (MTT assay); format: cell-based
# Method: Human Burkitt Lymphoma Daudi cells (1×10^6 cells/ml) were treated with different concentrations of Merodantoin. After overnight incubation at 37° C., the tumor cells kill was determined by MTT assay.
# Human Burkitt Lymphoma Daudi cells (1×10^6 cells/ml) were treated with different concentrations of Merocil. After overnight incubation at 37° C., the tumor cells kill was determined by MTT assay.
# Each cell type (1×10^6 cells/ml; in triplicate) was treated with indicated concentrations of Merocil or Merodantoin. After overnight (20 hr.) or 5 day incubation periods, the cell viability was determined by MTT assay and calculated as a percentage of untreated controls.
# [11] = system: 8226 (multiple myeloma); experiment: Inhibition of cell proliferation, 8226 (MTT assay); format: cell-based; settings: 24 h, read-out: % inhibition of cell proliferation
# Method: as §2
# (§6) Each cell type (1×10^6 cells/ml; in triplicate) was treated with indicated concentrations of merocil or merodantoin. […] The cytotoxicity in vehicle only (cremophor EL) controls was not detectable at highest dose tested.
# [12] = system: U266B1 (myeloma); experiment: Inhibition of cell proliferation, U266B1 (MTT assay); format: cell-based; settings: 24 h, read-out: % inhibition of cell proliferation
# Method: as §2, §6
# [13] = system: H.S. Sultan (multiple myeloma); experiment: Inhibition of cell proliferation, H.S. Sultan (MTT assay); format: cell-based; settings: 24 h, read-out: % inhibition of cell proliferation
# Method: as §2, §6
# [14] = system: certain tumor cells; experiment: Inhibition of proliferation of tumor cells (overall conclusion); format: cell-based
# Source text: as §2
# [15] = system: JEG-3 (choriocarcinoma, human); experiment: Inhibition of cell proliferation, JEG-3 (MTT assay); format: cell-based; settings: read-out: % inhibition of cell proliferation
# Method: as §2, §3
# [16] = Homo sapiens, Daudi, read-out: % Cell Kill (means ± S.D.)
compound,measurement,setting,value
"CCCCN1C(=O)C(O)(OC)C(=O)N(CCCC)C1=S [Merocil, N,N'-Dibutyl-4,5 dihydro-5-hydroxy-5-methoxy-4-oxo-2-thiouracil]",inhibition at 0.78 µg/mL,"[1]; BT-20, 48 h",3%
same,inhibition at 1.56 µg/mL,"[1]; BT-20, 48 h",0%
same,inhibition at 3.13 µg/mL,"[1]; BT-20, 48 h",2%
same,inhibition at 6.25 µg/mL,"[1]; BT-20, 48 h",0%
same,inhibition at 12.5 µg/mL,"[1]; BT-20, 48 h",11%
same,inhibition at 0.78 µg/mL,"[1]; BT-20, 96 h",11%
same,inhibition at 1.56 µg/mL,"[1]; BT-20, 96 h",22%
same,inhibition at 3.13 µg/mL,"[1]; BT-20, 96 h",41%
same,inhibition at 6.25 µg/mL,"[1]; BT-20, 96 h",20%
same,inhibition at 12.5 µg/mL,"[1]; BT-20, 96 h",8%
same,viability of the MT-4 cells,[2],not affected
same,inhibition at 0.78 µg/mL,"[3]; DU-145, 20 h",0%
same,inhibition at 1.56 µg/mL,"[3]; DU-145, 20 h",0%
same,inhibition at 3.13 µg/mL,"[3]; DU-145, 20 h",0%
same,inhibition at 6.25 µg/mL,"[3]; DU-145, 20 h",5%
same,inhibition at 12.5 µg/mL,"[3]; DU-145, 20 h",3%
same,inhibition at 0.78 µg/mL,"[3]; DU-145, 120 h",26%
same,inhibition at 1.56 µg/mL,"[3]; DU-145, 120 h",33%
same,inhibition at 3.13 µg/mL,"[3]; DU-145, 120 h",71%
same,inhibition at 12.5 µg/mL,"[3]; DU-145, 120 h",93%
same,inactivation of cell free HIV,[4]; 75 μg/ml dose,virtually complete inactivation of the virus
same,inactivating human immunodeficiency virus (HIV-1),[4]; conclusion,effective
same,inhibition at 0.78 µg/mL,[5]; 20 h,2%
same,inhibition at 1.56 µg/mL,[5]; 20 h,9%
same,inhibition at 3.13 µg/mL,[5]; 20 h,35%
same,inhibition at 6.25 µg/mL,[5]; 20 h,36%
same,inhibition at 12.5 µg/mL,[5]; 20 h,49%
same,inhibition at 0.78 µg/mL,[5]; 120 h,23%
same,inhibition at 1.56 µg/mL,[5]; 120 h,26%
same,inhibition at 3.13 µg/mL,[5]; 120 h,46%
same,inhibition at 6.25 µg/mL,[5]; 120 h,89%
same,inhibition at 12.5 µg/mL,[5]; 120 h,97%
same,% Cell Kill,[6],28%
same,inhibition at 0.78 µg/mL,"[7]; MS751, 20 h",1%
same,inhibition at 1.56 µg/mL,"[7]; MS751, 20 h",7%
same,inhibition at 3.13 µg/mL,"[7]; MS751, 20 h",12%
same,inhibition at 6.25 µg/mL,"[7]; MS751, 20 h",20%
same,inhibition at 12.5 µg/mL,"[7]; MS751, 20 h",20%
same,inhibition at 0.78 µg/mL,"[7]; MS751, 120 h",10%
same,inhibition at 1.56 µg/mL,"[7]; MS751, 120 h",11%
same,inhibition at 3.13 µg/mL,"[7]; MS751, 120 h",12%
same,inhibition at 6.25 µg/mL,"[7]; MS751, 120 h",29%
same,inhibition at 12.5 µg/mL,"[7]; MS751, 120 h",89%
same,toxicity to normal human peripheral blood mononuclear cells,[8],relatively non-toxic
same,cytotoxicity,[9]; 0.78 μg/ml,2.67 ± 0.8%
same,cytotoxicity,[9]; 1.56 μg/ml,5 ± 0.67%
same,cytotoxicity,[9]; 3.13 μg/ml,4 ± 0.67%
same,cytotoxicity,[9]; 6.25 μg/ml,6%
same,cytotoxicity,[9]; 12.5 μg/ml,5 ± 0.71%
same,growth inhibition of cultured Daudi lymphoma cells,[10]; 12.5 μg/ml,virtually complete growth inhibition
same,cytotoxicity at 0.78 µg/mL,[10]; [16],4.75 ± 3.2%
same,cytotoxicity at 1.56 µg/mL,[10]; [16],16.5 ± 9.45%
same,cytotoxicity at 3.13 µg/mL,[10]; [16],36.8 ± 16.1%
same,cytotoxicity at 6.25 µg/mL,[10]; [16],87.2 ± 9.9%
same,cytotoxicity at 12.5 µg/mL,[10]; [16],100%
same,inhibition at 0.78 µg/mL,[11],17%
same,inhibition at 1.56 µg/mL,[11],24%
same,inhibition at 3.13 µg/mL,[11],26%
same,inhibition at 6.25 µg/mL,[11],25%
same,inhibition at 12.5 µg/mL,[11],55%
same,inhibition at 0.78 µg/mL,[12],3%
same,inhibition at 1.56 µg/mL,[12],6%
same,inhibition at 3.13 µg/mL,[12],21%
same,inhibition at 6.25 µg/mL,[12],8%
same,inhibition at 12.5 µg/mL,[12],8%
same,inhibition at 0.78 µg/mL,[13],23%
same,inhibition at 1.56 µg/mL,[13],28%
same,inhibition at 3.13 µg/mL,[13],24%
same,inhibition at 6.25 µg/mL,[13],63%
same,inhibition at 12.5 µg/mL,[13],68%
same,inhibiting the proliferation of certain tumor cells,[14],effective
same,inhibition at 0.78 µg/mL,"[15]; JEG-3, 20 h",0%
same,inhibition at 1.56 µg/mL,"[15]; JEG-3, 20 h",3%
same,inhibition at 3.13 µg/mL,"[15]; JEG-3, 20 h",32%
same,inhibition at 6.25 µg/mL,"[15]; JEG-3, 20 h",68%
same,inhibition at 12.5 µg/mL,"[15]; JEG-3, 20 h",86%
same,inhibition at 0.78 µg/mL,"[15]; JEG-3, 120 h",8%
same,inhibition at 1.56 µg/mL,"[15]; JEG-3, 120 h",11%
same,inhibition at 3.13 µg/mL,"[15]; JEG-3, 120 h",11%
same,inhibition at 6.25 µg/mL,"[15]; JEG-3, 120 h",51%
same,inhibition at 12.5 µg/mL,"[15]; JEG-3, 120 h",86%
"CC1(O)Oc2ccccc2N1CCCS(=O)(=O)O (centres unmarked) [Meroxazole, 2-Hydroxy-2-methyl-3-[3'-sulfopropyl]-benzoxazolin]",% Cell Kill,[6],Zero
same,cytotoxicity at 25 µg/mL,"[10]; Homo sapiens, Daudi, 25 μg/ml, representative experiment, read-out: % Cell Kill",0%
same,cytotoxicity at 50 µg/mL,"[10]; Homo sapiens, Daudi, 50 μg/ml, representative experiment, read-out: % Cell Kill",0%
same,cytotoxicity at 75 µg/mL,"[10]; Homo sapiens, Daudi, 75 μg/ml, representative experiment, read-out: % Cell Kill",0%
same,cytotoxicity at 100 µg/mL,"[10]; Homo sapiens, Daudi, 100 μg/ml, representative experiment, read-out: % Cell Kill",0%
same,cytotoxicity at 125 µg/mL,"[10]; Homo sapiens, Daudi, 125 μg/ml, representative experiment, read-out: % Cell Kill",0%
same,cytotoxicity at 500 µg/mL,"[10]; Homo sapiens, Daudi, 500 μg/ml, representative experiment, read-out: % Cell Kill",32%
same,cytotoxicity to Daudi cells (conclusion),[10]; doses of Table 7,not cytotoxic
